Measurements: the supplement of paper PMC11451515

Tested on: SEM cells
Test: cell viability relative to DMSO control; higher = less cytotoxic
Settings: 48 h
Procedure, shortened: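 Three leukemia lines were tested: NOMO1 and SEM at 500 cells/well and P12-Ichikawa at 1000 cells/well. Each was adapted for at least four passages in each medium and seeded in 5 μl in 1536-well plates, and library compounds in DMSO were pin-dosed from 47 μM to 0.79 nM in 11 threefold steps. After 48 h at 37°C, CellTiter-Glo One luminescence was read. Viability is a percentage relative to DMSO wells on each plate, with cell-free wells as background.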

[1] = HPLM + 10% dialyzed FBS, 0.000781 µM
[2] = HPLM + 10% dialyzed FBS, 0.00234 µM
[3] = HPLM + 10% dialyzed FBS, 0.00702 µM
[4] = HPLM + 10% dialyzed FBS, 0.0211 µM
[5] = HPLM + 10% dialyzed FBS, 0.0632 µM
[6] = HPLM + 10% dialyzed FBS, 0.19 µM
[7] = HPLM + 10% dialyzed FBS, 0.569 µM
[8] = HPLM + 10% dialyzed FBS, 1.71 µM
[9] = HPLM + 10% dialyzed FBS, 5.12 µM
[10] = HPLM + 10% dialyzed FBS, 15.4 µM
[11] = HPLM + 10% dialyzed FBS, 46.1 µM
[12] = RPMI 5 mM glucose + 10% FBS, 0.000781 µM
[13] = RPMI 5 mM glucose + 10% FBS, 0.00234 µM
[14] = RPMI 5 mM glucose + 10% FBS, 0.00702 µM
[15] = RPMI 5 mM glucose + 10% FBS, 0.0211 µM
[16] = RPMI 5 mM glucose + 10% FBS, 0.0632 µM
[17] = RPMI 5 mM glucose + 10% FBS, 0.19 µM
[18] = RPMI 5 mM glucose + 10% FBS, 0.569 µM
[19] = RPMI 5 mM glucose + 10% FBS, 1.71 µM
[20] = RPMI 5 mM glucose + 10% FBS, 5.12 µM
[21] = RPMI 5 mM glucose + 10% FBS, 15.4 µM
[22] = RPMI 5 mM glucose + 10% FBS, 46.1 µM
[23] = RPMI 5 mM glucose + 10% dialyzed FBS, 0.000781 µM
[24] = RPMI 5 mM glucose + 10% dialyzed FBS, 0.00234 µM
[25] = RPMI 5 mM glucose + 10% dialyzed FBS, 0.00702 µM
[26] = RPMI 5 mM glucose + 10% dialyzed FBS, 0.0211 µM
[27] = RPMI 5 mM glucose + 10% dialyzed FBS, 0.0632 µM
[28] = RPMI 5 mM glucose + 10% dialyzed FBS, 0.19 µM
[29] = RPMI 5 mM glucose + 10% dialyzed FBS, 0.569 µM
[30] = RPMI 5 mM glucose + 10% dialyzed FBS, 1.71 µM
[31] = RPMI 5 mM glucose + 10% dialyzed FBS, 5.12 µM
[32] = RPMI 5 mM glucose + 10% dialyzed FBS, 15.4 µM
[33] = RPMI 5 mM glucose + 10% dialyzed FBS, 46.1 µM

| SMILES | cell viability [1] | cell viability [2] | cell viability [3] | cell viability [4] | cell viability [5] | cell viability [6] | cell viability [7] | cell viability [8] | cell viability [9] | cell viability [10] | cell viability [11] | cell viability [12] | cell viability [13] | cell viability [14] | cell viability [15] | cell viability [16] | cell viability [17] | cell viability [18] | cell viability [19] | cell viability [20] | cell viability [21] | cell viability [22] | cell viability [23] | cell viability [24] | cell viability [25] | cell viability [26] | cell viability [27] | cell viability [28] | cell viability [29] | cell viability [30] | cell viability [31] | cell viability [32] | cell viability [33] |
| --- | --- | --- | --- | --- | --- | --- | --- | --- | --- | --- | --- | --- | --- | --- | --- | --- | --- | --- | --- | --- | --- | --- | --- | --- | --- | --- | --- | --- | --- | --- | --- | --- | --- |
| N=C1N[C@H]2[C@H](CS[C@H]2CCCCC(=O)O)N1 | 80.4% | 109% | 91.8% | 97.2% | 111% | 108% | 25.3% | 112% | 117% | 112% | 109% | 87.6% | 115% | 108% | 106% | 107% | 107% | 15.4% | 115% | 110% | 115% | 121% | 108% | 105% | 111% | 118% | 117% | 101% | 18.4% | 121% | 122% | 124% | 128% |
| CCN1CCN(C(=O)Cc2ccc(Nc3ncc(F)c(Nc4ccc(C(=O)Nc5ccccc5Cl)cc4)n3)cc2)CC1 | 79.1% | 90.8% | 97.2% | 111% | 109% | 107% | 108% | 83.1% | 61.2% | 33.6% | 27.6% | 81.8% | 108% | 103% | 108% | 118% | 105% | 101% | 82.4% | 58.8% | 11.5% | 8.62% | 80.4% | 89.3% | 111% | 97.6% | 116% | 118% | 101% | 81.6% | 54.4% | 19.1% | 14.6% |
| NC(=O)c1ncn([C@@H]2O[C@H](CO)[C@@H](O)[C@H]2O)c1O | 128% | 118% | 82.8% | 120% | 117% | 117% | 115% | 130% | 118% | 123% | 104% | 112% | 127% | 89.1% | 137% | 131% | 131% | 115% | 118% | 121% | 117% | 114% | 98.7% | 104% | 85.8% | 128% | 121% | 104% | 112% | 115% | 113% | 116% | 113% |
| COc1cccc2c1[C@]13CCN(CC4CC4)[C@H](C2)[C@]1(OC)CCC(=O)C3 | 71.3% | 90.6% | 20% | 108% | 106% | 105% | 107% | 109% | 116% | 120% | 111% | 89.4% | 123% | 8.7% | 113% | 116% | 107% | 97% | 113% | 122% | 98.4% | 110% | 81.2% | 108% | 18.8% | 99.8% | 105% | 106% | 84.6% | 97.4% | 93.3% | 95.6% | 80.7% |
